# Paper PMC5653814, “Regiospecific Synthesis of Ring A Fused Withaferin A Isoxazoline Analogues: Induction of Premature Senescence by W-2b in Proliferating Cancer Cells” (Scientific Reports, 2017)
# Read-outs that look alike come from different tables or passages of the source.
# Assays:
# MCF7 cells [1] = assay: MTT cell viability assay, MCF7; format: cell-based, human; conditions: read-out: Cytotoxicity IC50, MCF7
# Method: (§1) The cell viability assay was performed according to the procedure previously described with minor modifications. Briefly, MCF7, HCT-116 and fR2 cells were plated in 96 well plates at a density of 5 × 10^3 cells per well and incubated overnight. […] MTT dye solution (2.5 mg/mL) was introduced to the cells in medium 4 h before the completion of the treatment period and the formed formazan crystals were solubilized with DMSO. Optical density was measured with the help of a UV-visible spectrophotometer coupled with microplate reader (TECAN, Infinite M200 Pro), the percent inhibition was calculated and IC50 values were determined with the help of GraphPad Prism software (GraphPad software Inc. CA, USA).
# (§2) Data were expressed as the mean ± standard deviation of three independent experiments performed and analyzed by Student’s t-test. IC50 values were determined with the help of GraphPad Prism software Version 5.0 (GraphPad Software, Inc., USA) by taking the log of inhibitor vs. response. A 2-sided value of *P < 0.05 was considered significant in all cases.
# HCT-116 cells [2] = assay: MTT cell viability assay, HCT-116; format: cell-based, human; conditions: read-out: Cytotoxicity IC50, HCT-116
# Method: as §1, §2
# [3] = MTT cell viability assay, fR2 normal breast epithelial cells; format: cell-based, human; conditions: human, fR2 normal breast epithelial cells, read-out: Cytotoxicity IC50, fR2
# Method: as §1, §2
# fR2 cells [4] = assay: as above; format: cell-based, human; conditions: 48 h, read-out: Cytotoxicity IC50, fR2
# Method: as §1, §2
# MCF7 cells [5] = assay: SA-β-gal activity assay, MCF7; format: cell-based, human; conditions: MCF7, sub-toxic concentrations, five days
# Method: (§3) The procedure was followed as described previously with some modifications. Briefly, MCF7 and HCT-116 cells (0.4 × 10^6 per well) were seeded in six-well plates and treated with indicated concentrations of W-2b along with WA, vehicle and positive control doxorubicin for five days. Cells were accordingly washed twice with PBS, fixed with 4% paraformaldehyde for 5 min, rinsed twice with PBS and incubated with freshly prepared staining solution (40 mM citric acid/Na phosphate buffer, 5 mM K4[Fe(CN)6] 3H2O, 5 mM K3[Fe(CN)6], 150 mM sodium chloride, 2 mM magnesium chloride and 1 mg/ml X-gal in distilled water, pH 6.0) for 48 h at 37 °C. Stained cells were thoroughly washed and air dried in dark. Cells were then observed under bright field microscope (NIKON) for the SA-β-gal positive cells and images were captured at 20x magnification.
# HCT-116 cells [6] = assay: SA-β-gal activity assay, HCT-116; format: cell-based, human; conditions: HCT-116, sub-toxic concentrations, five days
# Method: as §3
# fR2 cells [7] = assay: SA-β-gal staining, fR2; format: cell-based, human; conditions: fR2, sub-toxic doses 1–2 µM
# MCF7 cells [8] = assay: Colony formation (clonogenic) assay, MCF7; format: cell-based; conditions: Homo sapiens, 120 h; MCF7, 1.0 µM, five days
# Method: (§4) The experiment was carried out according to the standardized protocol with some modifications. MCF7 and HCT-116 cells were trypsinized properly, seeded in 6 well plates at a density of 1 × 10^3 cells/well and incubated overnight. Then treatment was given to the cells with vehicle, doxorubicin and various concentrations of W-2b for five days. Cells were then washed, fixed with 4% paraformaldehyde for 10 min, rewashed twice and stained with 0.25% crystal violet solution for 1 h. The wells containing the cells were then washed thoroughly with distilled water to remove any extra stains and then air dried overnight. The plate was then observed under an inverted microscope and colonies from three random fields were counted, averaged and photographed with NIKON camera (D3100) at 4x magnification.
# HCT-116 cells [9] = assay: Colony formation (clonogenic) assay, HCT-116; format: cell-based; conditions: Homo sapiens, 120 h; HCT-116, 1.5 µM, five days
# Method: as §4
# MCF7 cells [10] = assay: Flow cytometric cell cycle analysis (propidium iodide), MCF7; format: cell-based, human; conditions: MCF7, 1.0 µM, 48 h; vehicle 13.03%
# Method: MCF7 cells were seeded at a density of 0.4 × 10^6 cells/well in 35 mm dishes and incubated overnight at 37 °C and 5% CO2. Next day, cells were treated with vehicle and W-2b at indicated concentrations for 48 h. They were then trypsinized, centrifuged at 2000 rpm for 3 min, washed twice with ice-cold PBS and fixed with ice-cold 70% ethanol (v/v) for 1 hour at 4 °C. Cells were then pelleted down at 2000 rpm for 3 min, washed with PBS and incubated first with 200 μg/ml of RNase A in PBS at 37 °C water bath for 90 min and then with 50 μg/mL of propidium iodide (PI) at room temperature for 30 min in dark. The samples were then analyzed by BD Accuri C6 flow cytometer (BD Biosciences).
# [11] = tested on: 4T1 mouse mammary carcinoma; assay: In vivo tumor growth, 4T1 mouse mammary carcinoma model; conditions: 25 mg/kg b.w. intraperitoneal
# Method: The experiment was performed according to the pre-standardized protocol with minor modifications. To evaluate the in vivo anti-tumor efficacy of W-2b, healthy female Balb/c mice (25–30 g) were taken. Animals were randomized into three groups, and six animals were taken per group. For the tumor cells implantation, mouse mammary carcinoma 4T1 cells (1 × 10^6 per 200 μL) diluted in serum-free RPMI medium were injected subcutaneously into the mammary pad of each mouse around the second right mammary gland. A week after tumor cell implantation, when the palpable mammary tumors develop, mice were injected intraperitoneally with either vehicle (normal saline) or 5-FU (25 mg/kg/b.w.) or W-2b (25 mg/kg/b.w.) in each alternative day for two weeks. Tumor sizes were measured in each alternate day after tumor cell injection, and the body weight was recorded once in a week. Mice were sacrificed on the 15th day after treatment initiation, and tumors were dissected out carefully from the mammary pad area.
smiles,measurement,setting,value
"CC1=C(CO)C(=O)OC(C(C)C2CCC3C4CC5OC56C(O)C5ON=C(c7ccc([N+](=O)[O-])cc7)C5C(=O)C6(C)C4CCC23C)C1 (stereo not drawn) [W-2b, 4-nitrophenyl-2-isoxazoline withaferin A]",IC50,MCF7 cells [1]; 48 h,0.705 ± 0.059 µM
same,IC50,"MCF7 cells [1]; Homo sapiens, MCF7, 24 h, 24 h",0.881 ± 0.052 µM
same,IC50,"MCF7 cells [1]; Homo sapiens, MCF7, 72 h, 72 h",0.682 ± 0.075 µM
same,IC50,HCT-116 cells [2]; 48 h,1.25 ± 0.156 µM
same,IC50,"HCT-116 cells [2]; Homo sapiens, HCT-116, 24 h, 24 h",1.48 ± 0.129 µM
same,IC50,"HCT-116 cells [2]; Homo sapiens, HCT-116, 72 h, 72 h",1.03 ± 0.33 µM
same,IC50 at 24 h,[3]; 24 h,39.7 ± 7.3 µM
same,IC50 at 72 h,[3]; 72 h,33.9 ± 8.23 µM
same,IC50,fR2 cells [4],35.5 ± 6.12 µM
same,SA-β-gal positive cells,MCF7 cells [5],58%
same,SA-β-gal positive cells,HCT-116 cells [6],53%
same,SA-β-gal positive cells,fR2 cells [7],15–19%
same,inhibition at 1 µM,MCF7 cells [8],> 70%
same,inhibition at 1.5 µM,HCT-116 cells [9],> 70%
same,Cells in G2/M phase,MCF7 cells [10],45.5%
same,Inhibition in tumor volume,"[11]; each alternate day for two weeks, Balb/c mice",83.8%
same,Inhibition in tumor weight,"[11]; each alternate day for two weeks, vs normal saline group",91.2%
same,Tolerability of treated animals,[11]; two weeks,remained healthy without any serious side effects or mortality
